# Results reported in patent publication US20260001864A1, “COMPOUND CONTAINING SULFAMIDE STRUCTURE, AND PREPARATION METHOD THEREFOR AND APPLICATION THEREOF, AND PHARMACEUTICAL COMPOSITION AND APPLICATION” (Nanjing Shuohui Pharmatechnology Co., Ltd, priority 2021, published 2026).
# Where two headings read alike, the source gives them in different places.
# What was measured:
# [1] = Rat tissue distribution test (oral, LC-MS-MS); assay type: in vivo; design: Hepatic drug concentration: unit not given here; conditions: for Hepatic drug concentration / Exposure level (0-4 h): oral 4 mg/kg; for Hepatic drug concentration / Kp: rat; for Exposure level (0-4 h): male SD rats; for Kp: male, SD, plasma set to 1, oral 4 mg/kg, read-out: Ratio of exposure level
# Procedure: Three healthy male SD rats (body weight range 220-250 g, Zhejiang Charles River) were taken and assigned into one group (n=3). Compound 48, Compound A9 or comparison compound Vonoprazan were administered orally at a dose of 4 mg/kg.
# Solvent for preparing pharmaceutical preparations: Pure water. The rats were fasted 4 h prior to the administration. […] The tissue was homogenized, and the corresponding blank tissue was used for preparation of a calibration curve and QC quantification. Blood samples should be centrifuged to extract plasma within 1 hour of collection and kept on crushed ice prior to the centrifugation. Plasma samples obtained by centrifugation were stored in a freezer until analysis. Centrifugation conditions: 4-10° C., 8000 rpm, 6 min. The concentration of the sample was determined by LC-MS-MS (MS03: Shimadzu LC30AD and API 4000)), and the exposure data were calculated by WINNOLIN software.
# [2] = biological target: H+/K+-ATPase (rabbit gastric mucosal microsomes) (Oryctolagus cuniculus (Rabbit), UniProt P27112); test: In vitro screening test of H+/K+-ATPase inhibition (malachite green); assay type: biochemical; conditions: pH 6.5, 37° C. 30 min, read-out: IC50, inhibitory effect on H+/K+-ATPase activity
# Excerpt: This test example evaluates the inhibitory effects of the compounds of the present invention on the activity of H+/K+-ATPase by an in vitro screening test, and expresses them with the IC50 values of the compounds (obtained by calculating the inhibition rates at different concentrations).
# • Compound solutions: The products (i.e., the compounds or the hydrochloride salt of compounds) obtained in the foregoing preparation examples of the present invention were each independently dissolved in DMSO to form solutions at suitable concentrations; • Buffer I: 50 mmol/L HEPEs-Tris, pH=6.5, 5 mmol/L magnesium chloride, […] valinomycin (J&K Scientific Ltd., goods No.: 227304); • Buffer II: 50 mmol/L HEPEs-Tris, pH=6.5, 5 mmol/L magnesium chloride, […] valinomycin, 5 mmol/L potassium chloride; • 5-adenosine triphosphate (ATP, Sigma-Aldrich, goods No.: A2383) solution: Dilute ATP with buffer I to 5 mM; • Malachite green solution: Dissolve 0.12 wt % malachite green (J&K Scientific Ltd., goods No.: 913120) in 2.5 mol/L sulfuric acid, 7.5 wt % ammonium molybdate (J&K Scientific Ltd., goods No.: 128321) and 11% Tween 20(V/V). During use, sulfuric acid, ammonium molybdate and Tween 20 are mixed in a ratio of 100:25:2; • Rabbit gastric mucosal microsomes (rich in H+/K+-ATPase, self-extracted), extracted by sucrose gradient centrifugation: The rabbit stomach was washed with tap water and 3M NaCl solution, respectively, and then the surface water was removed with filter paper. A pre-cooled homogenization buffer (4 ml/g tissue) was added and homogenized for 2-5 min in a tissue homogenizer. After the homogenizing, if there are large tissue particles, they can be removed by centrifugation (600 g, 10 min). The supernatant was then transferred to a clean centrifuge tube and centrifuged at 20,000 g for 30 min, then the supernatant was transferred to a clean centrifuge tube and further centrifuged at 100,000 g for 90 min and the precipitate was collected; the precipitate was suspended in homogenate and blown evenly, and the protein concentration was measured by the Bradford's method and adjusted to 10 mg/ml; 7.5 wt % Ficoll's layering solution was added in equal proportions. After centrifugation at 100,000 g for 60 min, the middle layer (H^+/K^+-ATPase-enriched gastric membranes) was collected in a clean centrifuge tube, diluted with homogenate by 4-5 times, and then centrifuged at 100,000 g for another 90 min, and the precipitate was collected; the precipitate was suspended in homogenate and homogenized in a glass homogenizer, and the protein concentration was measured by the Bradford's method and adjusted to 22.5 mg/ml. It was frozen at −80° C. and stored for future use.
# 5 μL of rabbit gastric mucosal microsomes (H^+/K^+-ATPase) was added to 45 μL of buffer II, then 5 μL of compound solution was added, and then 5 μL of 5 mM ATP solution was added to start the reaction and pre-react at 37° C. for 30 min. 15 μL of malachite green solution was added to terminate the reaction, balancing was conducted at room temperature for 20 min, and read the optical absorbance at 620 nm.
# Meanwhile, the reaction of the same volume was carried out without addition of potassium chloride as a background, which was subtracted when calculating enzymatic activity.
# [3] = test system: histamine-induced gastric acid secretion; test: Inhibition of histamine-induced gastric acid secretion in rats (pylorus ligation); assay type: in vivo, rat; conditions: SD rats, total acid over 3 h after histamine
# Procedure: 70 SPF-level SD rats with a weight of 180-220 g (Hangzhou Medical College (produced)), randomly grouped by weight, including negative control groups (isovolumetric saline) and model control groups (isovolumetric saline), and compounds obtained in the foregoing preparation examples of the present invention (i.e., compounds or compound hydrochlorides) (2 mg/kg or 4 mg/kg), 10 rats each group, including 5 males and 5 females. The rats were fasted, but were allowed to drink water for 24 h. After 24 h, the rats were given the compound at 1 ml/100 g by gavage, once in each group, and the rats in the negative control groups and the model groups were given an equal volume of saline by gavage. After that, the rats were anesthetized with chloral hydrate 300 mg/kg (1 ml/100 g) and fixed on a rat plate, and the abdominal wall was incised along the abdominal midline from the subxiphoid process of the sternum, and the incision was approximately 2-3 cm and was made on the left costal margin, and the stomach was exposed to the incision by gently pushing it with the fingers upwards. The pylorus was ligated with a thread under the pylorus (other neighboring vessels were not ligated), and the abdominal wall incision was sutured. The animals were given histamine dihydrochloride (30 mg/10 ml/kg) subcutaneously after 1 h of gavage of the test compound or saline. After 3 h of histamine administration, the rats were asphyxiated with excess CO2, stomachs were removed, stomach contents were collected and centrifuged at 3000 rpm/min for 10 min, and the acid solution was titrated with 0.1 mol/L NaOH to pH7.0. The total acidity and acid inhibition rate during the 3 h period were calculated.
# Acid inhibition rate (%)=(Total acid in the model group−total acid in the test group)/total acid in the model group×100%
# Sequence of H+/K+-ATPase (rabbit gastric mucosal microsomes) (P27112 whole entry): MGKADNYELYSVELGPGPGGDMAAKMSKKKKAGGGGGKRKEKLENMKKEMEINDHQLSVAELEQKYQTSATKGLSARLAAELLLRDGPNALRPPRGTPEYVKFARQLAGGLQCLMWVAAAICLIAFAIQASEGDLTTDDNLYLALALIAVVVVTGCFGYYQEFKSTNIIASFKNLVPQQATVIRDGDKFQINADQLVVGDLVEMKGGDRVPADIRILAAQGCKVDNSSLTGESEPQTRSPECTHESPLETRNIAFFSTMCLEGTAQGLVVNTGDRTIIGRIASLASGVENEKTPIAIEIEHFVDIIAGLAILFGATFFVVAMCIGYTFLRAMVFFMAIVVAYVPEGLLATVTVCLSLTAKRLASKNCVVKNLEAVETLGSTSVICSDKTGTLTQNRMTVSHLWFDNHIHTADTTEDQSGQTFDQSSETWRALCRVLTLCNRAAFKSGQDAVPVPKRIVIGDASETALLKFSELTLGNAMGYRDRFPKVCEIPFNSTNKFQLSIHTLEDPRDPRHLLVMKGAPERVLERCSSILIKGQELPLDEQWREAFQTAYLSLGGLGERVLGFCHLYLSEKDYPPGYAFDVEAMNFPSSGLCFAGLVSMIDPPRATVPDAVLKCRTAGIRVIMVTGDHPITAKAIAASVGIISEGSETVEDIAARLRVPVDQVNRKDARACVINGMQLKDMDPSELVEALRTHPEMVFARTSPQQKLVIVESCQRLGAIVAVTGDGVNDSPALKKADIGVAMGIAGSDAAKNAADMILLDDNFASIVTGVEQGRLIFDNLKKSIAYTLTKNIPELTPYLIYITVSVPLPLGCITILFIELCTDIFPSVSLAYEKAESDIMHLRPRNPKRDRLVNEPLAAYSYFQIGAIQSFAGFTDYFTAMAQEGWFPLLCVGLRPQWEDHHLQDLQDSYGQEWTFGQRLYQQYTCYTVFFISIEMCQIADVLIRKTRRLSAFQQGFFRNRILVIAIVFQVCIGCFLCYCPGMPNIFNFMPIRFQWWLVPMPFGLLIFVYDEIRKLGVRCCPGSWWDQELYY
# Sequence of H+/K+-ATPase (rabbit gastric mucosal microsomes) (P18597 whole entry partner): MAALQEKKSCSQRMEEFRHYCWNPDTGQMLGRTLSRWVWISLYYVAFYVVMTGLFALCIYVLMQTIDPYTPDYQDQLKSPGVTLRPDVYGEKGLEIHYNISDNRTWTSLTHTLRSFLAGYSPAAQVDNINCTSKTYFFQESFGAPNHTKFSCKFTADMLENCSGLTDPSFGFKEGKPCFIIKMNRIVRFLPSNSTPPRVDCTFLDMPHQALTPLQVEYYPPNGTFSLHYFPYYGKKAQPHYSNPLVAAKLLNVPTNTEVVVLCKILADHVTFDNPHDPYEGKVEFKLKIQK
SMILES,IC50 [2],Acid inhibition rate ([3]; 2 mg/kg by gavage),other results
"CNCc1cc(-c2ccccc2F)n(S(=O)(=O)c2cccnc2)c1 [Vonoprazan, reference compound]",,,"Hepatic drug concentration ([1]; liver, 15 min): 9919; Hepatic drug concentration ([1]; liver, 1 h): 1192; Hepatic drug concentration ([1]; liver, 2 h): 632; Hepatic drug concentration ([1]; liver, 4 h): 162; Hepatic drug concentration ([1]; liver, 24 h): 23.7"
CNCc1cc(-c2ccc(OCC3CO3)cc2F)n(S(=O)(=O)c2cccnc2)c1 (centres unmarked) [Compound A11],14.1 nM,81%,
"CNCc1cn(S(=O)(=O)c2cccnc2)c(-c2ccc(OCC3CC3)cc2F)c1OC [Compound 48, 1-(5-(4-(cyclopropylmethoxy)-2-fluorophenyl)-4-methoxy-1-(pyridin-3-ylsulfonyl)-1H-pyrrolo-3-yl)-N-methylmethylamine]",36 nM,75%,Exposure level (0-4 h) ([1]; liver): 7585.5 ng·h/mL; Kp ([1]; liver): 88.4; Kp ([1]; plasma): 1; Kp ([1]; stomach): 171; Exposure level (0-4 h) ([1]; plasma): 85.8 ng·h/mL; Exposure level (0-4 h) ([1]; stomach): 14693.7 ng·h/mL; Acid inhibition rate ([3]; 4 mg/kg by gavage): 86%
CNCc1cc(-c2ccc(OCC3CCOCC3)cc2F)n(S(=O)(=O)c2cccnc2)c1 [Compound 6],149 nM,48%,
CNCc1cc(-c2ccc(OCC3CCOCC3)cc2F)n(S(=O)(=O)c2cccc(C#N)c2)c1 [Compound 28],30.8 nM,71%,
CNCc1cc(-c2ccc(OC(C)C3CCOCC3)cc2F)n(S(=O)(=O)c2cccnc2)c1 (centres unmarked) [Compound 8],72.1 nM,71%,

# Further lines, with some results ahead:
IC50 [2],SMILES,Acid inhibition rate ([3]; 2 mg/kg by gavage),other results
51.6 nM,CNCc1cc(-c2ccc(OCc3cnn(C)c3)cc2F)n(S(=O)(=O)c2cccnc2)c1 [Compound A3],65%,
27.7 nM,CNCc1cc(-c2ccc(OCC3CC3(F)F)cc2F)n(S(=O)(=O)c2cccnc2)c1 (centres unmarked) [Compound A10],81%,Acid inhibition rate ([3]; 4 mg/kg by gavage): 87%
119 nM,CNCc1cc(-c2ccc(OCC3COC3)cc2F)n(S(=O)(=O)c2cccnc2)c1 [Compound A12],63%,
